Data published in patent US6949571B2, “1,2-dihydropyridine compounds, process for preparation of the same and use thereof” (Eisai Co., Ltd., priority 2000, dated 2005).

Tested on: AMPA receptor
Settings: Table 1; primary culture of rat embryo cerebral cortex nerve cells, 2 μM AMPA, 1 μM MK-801
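Also: primary rat embryonic cortical neurons grown on an astrocyte layer in 96-well plates, used after at least 8 to 10 days in culture, Fura2-AM fluorescence ratio at 340/380 nm excitation.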

Row | SMILES | IC50
1 | N#Cc1ccccc1-c1cc(-c2ccccc2[N+](=O)[O-])cn(-c2ccccc2)c1=O [Example 1, 3-(2-Cyanophenyl)-5-(2-nitrophenyl)-1-phenyl-1,2-dihydropyridin-2-one] | 800 nM
2 | N#Cc1ccccc1-c1cc(-c2ccccn2)cn(-c2ccc(Cl)nc2)c1=O [Example 120, 3-(2-Cyanophenyl)-5-(2-pyridyl)-1-(2-chloropyridin-5-yl)-1,2-dihydropyridin-2-one] | 200 nM
3 | COc1ccccc1-c1cc(-c2ccccn2)cn(-c2ccc(F)cc2)c1=O [Example 56, 3-(2-Methoxyphenyl)-5-(2-pyridyl)-1-(4-fluorophenyl)-1,2-dihydropyridin-2-one] | 3200 nM
4 | CN(C)CCOc1ccc(-n2cc(-c3ccccn3)cc(-c3ccccc3Cl)c2=O)cc1 [Example 19, 3-(2-Chlorophenyl)-5-(2-pyridyl)-1-(4-dimethylaminoethoxyphenyl)-1,2-dihydropyridin-2-one] | 80 nM
5 | CSc1ccc(-n2cc(-c3ccccn3)cc(-c3cccnc3F)c2=O)cc1 [Example 84, 3-(2-Fluoro-3-pyridyl)-5-(2-pyridyl)-1-(4-methylthiophenyl)-1,2-dihydropyridin-2-one] | 900 nM
6 | CCSc1ccc(-n2cc(-c3ccccn3)cc(-c3ccccc3C#N)c2=O)cn1 [Example 116, 3-(2-Cyanophenyl)-5-(2-pyridyl)-1-(2-ethylthiopyridin-5-yl)-1,2-dihydropyridin-2-one] | 200 nM
7 | COc1ccncc1-c1cc(-c2ccccn2)cn(-c2ccccc2)c1=O [Example 77, 3-(4-Methoxy-3-pyridyl)-5-(2-pyridyl)-1-phenyl-1,2-dihydropyridin-2-one] | 20 nM
8 | N#Cc1ccccc1-c1cc(-c2ccoc2)cn(-c2ccccc2)c1=O [Example 48] | 40 nM
9 | N#Cc1cccc(-c2cc(-c3ccccc3)cn(-c3cccnc3)c2=O)n1 [Example 79, 3-(6-Cyano-2-pyridyl)-5-phenyl-1-(3-pyridyl)-1,2-dihydropyridin-2-one] | 2600 nM
10 | N#Cc1ccccc1-c1cc(-c2ccccn2)cn(-c2cncc(COCc3ccccc3)c2)c1=O [Example 115, 3-(2-Cyanophenyl)-5-(2-pyridyl)-1-(3-benzyloxymethylpyridin-5-yl)-1,2-dihydropyridin-2-one] | 60 nM
11 | O=c1c(-c2ccccc2)cc(-c2ccccn2)cn1-c1ccc(F)cc1 [Example 98, 3-Phenyl-5-(2-pyridyl)-1-(4-fluorophenyl)-1,2-dihydropyridin-2-one] | 600 nM
12 | O=c1c(-c2cccc(F)c2)cc(-c2ccccn2)cn1-c1ccccc1 [Example 72, 3-(3-Fluorophenyl)-5-(2-pyridyl)-1-phenyl-1,2-dihydropyridin-2-one] | 700 nM
13 | CC(=O)NCc1cccc(-n2cc(-c3ccccn3)cc(-c3ccccc3C#N)c2=O)c1 [Example 23, 3-(2-Cyanophenyl)-5-(2-pyridyl)-1-(3-acetylaminomethylphenyl)-1,2-dihydropyridin-2-one] | 200 nM
14 | COc1ccccc1-c1cc(-c2ccccn2)cn(-c2ccccc2)c1=O [Example 55, 3-(2-Methoxyphenyl)-5-(2-pyridyl)-1-phenyl-1,2-dihydropyridin-2-one] | 800 nM
15 | COCC1CN(c2cccc(-n3cc(-c4ccccn4)cc(-c4ccccc4C#N)c3=O)c2)C(=O)O1 (stereo not drawn) [Example 13, 3-(2-Cyanophenyl)-5-(2-pyridyl)-1-[3-(5-methoxymethyl-2-oxazolidinon-3-yl)-phenyl]-1,2-dihydropyridin-2-one] | 200 nM
16 | CS(=O)(=O)Nc1cccc(-n2cc(-c3ccccn3)cc(-c3ccccc3C#N)c2=O)c1 [Example 10, 3-(2-Cyanophenyl)-5-(2-pyridyl)-1-(3-methylsulfonylaminophenyl)-1,2-dihydropyridin-2-one] | 50 nM
17 | O=c1c(-c2cccc(Cl)c2)cc(-c2ccccn2)cn1-c1ccccc1 [Example 65, 3-(3-Chlorophenyl)-5-(2-pyridyl)-1-phenyl-1,2-dihydropyridin-2-one] | 600 nM
18 | N#Cc1ccccc1-c1cc(-c2ccccn2)cn(-c2cncnc2)c1=O [Example 111, 3-(2-Cyanophenyl)-5-(2-pyridyl)-1-(pyrimidin-5-yl)-1,2-dihydropyridin-2-one] | 400 nM
19 | O=c1c(-c2ccc(F)cc2)cc(-c2ccccn2)cn1-c1ccccc1 [Example 73, 3-(4-Fluorophenyl)-5-(2-pyridyl)-1-phenyl-1,2-dihydropyridin-2-one] | 1200 nM

Same assay, conditions: Table 2; suppression of AMPA-induced calcium influx into nerve cells

Row | SMILES | IC50
20 | CN(C)CCOc1cccc(-n2cc(-c3ccccn3)cc(-c3ccccc3C#N)c2=O)c1 [Example 239, 3-(2-Cyanophenyl)-1-[3-(dimethylaminoethoxy)phenyl]-5-(2-pyridyl)-1,2-dihydropyridin-2-one] | 300 nM
21 | O=c1c(-c2ccncn2)cc(-c2ccccn2)cn1-c1ccccc1 [Example 256, 1-Phenyl-3-(4-pyrimidinyl)-5-(2-pyridyl)-1,2-dihydropyridin-2-one] | 1200 nM
22 | O=c1c(-c2cccc(O)n2)cc(-c2ccccn2)cn1-c1ccccc1 [Example 165, 3-(2-Hydroxypyridin-6-yl)-1-phenyl-5-(2-pyridyl)-1,2-dihydropyridin-2-one] | 400 nM
23 | N#Cc1ccccc1-c1cc(-c2ccccn2)cn(-c2ccc(N)cc2)c1=O [Example 215, 1-(4-Aminophenyl)-3-(2-cyanophenyl)-5-(2-pyridyl)-1,2-dihydropyridin-2-one] | 100 nM
24 | Cc1ccc(C)n1-c1cccc(-c2cc(-c3ccccc3C#N)c(=O)n(-c3ccccc3)c2)n1 [Example 297, 3-(2-Cyanophenyl)-5-[2-(2,6-dimethylpvrrol-1-yl)pyridin-6-yl]-1-phenyl-1,2-dihydropyridin-2-one] | 4200 nM
25 | O=c1c(-c2cccc3ccccc23)cc(-c2ccccn2)cn1-c1ccccc1 [Example 280, 3-(1-Naphthyl)-5-(2-pyridyl)-1-phenyl-1,2-dihydropyridin-2-one] | 1300 nM
26 | N#Cc1ccccc1-c1cc(-c2ccccn2)cn(C2CCCC2)c1=O [Example 171, 3-(2-Cyanophenyl)-1-cyclopentyl-5-(2-pyridyl)-1,2-dihydropyridin-2-one] | 2300 nM
27 | COc1cccc(-c2cc(-c3ccccc3C#N)c(=O)n(-c3ccccc3)c2)n1 [Example 206, 3-(2-Cyanophenyl)-5-(2-methoxypyridin-6-yl)-1-phenyl-1,2-dihydropyridin-2-one] | 500 nM
28 | N#Cc1ccccc1-c1cc(-c2ccccn2)cn(-c2cccc(OCCN3CCCC3)c2)c1=O [Example 241, 3-(2-Cyanophenyl)-1-[3-(pyrrolidinoethoxy)phenyl]-5-(2-pyridyl)-1,2-dihydropyridin-2-one] | 400 nM
29 | O=c1c(-c2ccccc2O)cc(-c2ccccn2)cn1-c1ccc(F)cc1 [Example 142, 3-(2-Hydroxyphenyl)-5-(2-pyridyl)-1-(4-fluorophenyl)-1,2-dihydropyridin-2-one] | 2200 nM
30 | CC(=O)Nc1cccc(-c2cc(-c3ccccc3C#N)c(=O)n(-c3ccccc3)c2)n1 [Example 229, 5-[(6-Acetylamino)pyridin-2-yl]-3-(2-cyanophenyl)-1-phenyl-1,2-dihydropyridin-2-one] | 4200 nM
31 | O=c1c(-c2cccnc2F)cc(-c2ncccn2)cn1-c1cccnc1 [Example 263, 3-(2-Fuluoropyridin-3-yl)-1-(3-pyridyl)-5-(2-pyrimidinyl)-1,2-dihydropyridin-2-one] | 1000 nM
32 | CC(=O)c1ccccc1-c1cc(-c2ccccn2)cn(-c2ccccc2)c1=O [Example 272, 3-(2-Acetylphenyl)-5-(2-pyridyl)-1-phenyl-1,2-dihydropyridin-2-one] | 3300 nM
33 | N#Cc1ccccc1-c1cc(-c2cccc[n+]2[O-])cn(-c2ccccc2)c1=O [Example 173, 3-(2-Cyanophenyl)-5-(2-pyridyl 1-oxide)-1-phenyl-1,2-dihydropyridin-2-one] | 4200 nM

Same assay, conditions: Table 3; primary culture of rat embryo cerebral cortex nerve cells, 2 μM AMPA, 1 μM MK-801

Row | SMILES | IC50
34 | COC(=O)c1cccc(-c2cc(-c3ccccc3C#N)c(=O)n(-c3ccccc3)c2)n1 [Example 303, 3-(2-Cyanophenyl)-5-(2-methoxycarbonylpyridin-6-yl)-1-phenyl-1,2-dihydropyridin-2-one] | 900 nM
35 | O=c1c(N(Cc2ccccc2)Cc2ccccc2)cc(-c2ccccn2)cn1-c1ccccc1 [Example 314, 3-Dibenzylamino-1-phenyl-5-(2-pyridyl)-1,2-dihydropyridin-2-one] | 4600 nM
36 | N#Cc1ccccc1-c1cc(-c2ccccn2)cn(-c2cccc(OC3CCN(S(=O)(=O)c4ccccc4)CC3)c2)c1=O [Example 337, 1-{3-[1-(Benzenesulfonyl)piperidin-4-yl-oxy]phenyl}-3-(2-cyanophenyl)-5-(2-pyridyl)-1,2-dihydropyridin-2-one] | 700 nM
37 | N#Cc1ccccc1-c1cc(-c2ccccn2)cn(COCc2ccccc2)c1=O [Example 316, 1-Benzyloxymethyl-3-(2-cyanophenyl)-5-(2-pyridyl)-1,2-dihydropyridin-2-one] | 2100 nM
38 | Cc1ccc(-c2ccccc2)n1-c1cc(-c2ccccn2)cn(-c2ccccc2)c1=O [Example 327, 3-(2-Methyl-5-phenylpyrrol-1-yl)-5-(2-pyridyl)-1-phenyl-1,2-dihydropyridin-2-one] | 8000 nM
39 | N#Cc1ccccc1-c1cc(-c2ccccn2)cn(CC2CCCC2)c1=O [Example 317, 3-(2-Cyanophenyl)-1-cyclopentylmethyl-5-(2-pyridyl)-1,2-dihydropyridin-2-one] | 600 nM
40 | O=c1c(-c2nc3ccccc3n2-c2ccncc2)cc(-c2ccccn2)cn1-c1ccccc1 [Example 356, 3-[1-(Pyridin-4-yl)benzimidazol-2-yl]-5-(2-pyridyl)-1-phenyl-1,2-dihydropyridin-2-one] | 2100 nM
41 | Cc1ccc(-n2cc(-c3ccccn3)cc(-c3ccccc3C#N)c2=O)cc1[N+](=O)[O-] [Example 381, 3-(2-Cyanophenyl)-5-(2-pyridyl)-1-(2-nitrotoluen-4-yl)-1,2-dihydropyridin-2-one] | 400 nM
42 | N#Cc1ccccc1-c1cc(-c2nc3cnccc3[nH]2)cn(-c2ccccc2)c1=O [Example 362, 3-(2-Cyanophenyl)-5-(1H-imidazo[4,5-c]pyridin-2-yl)-1-phenyl-1,2-dihydropyridin-2-one] | 3700 nM
